Values quoted from earlier work, collected in paper PMC9010276 (Clinical and Translational Science, 2021).
Where two headings read alike, the source gives them in different places.

How the values were obtained:
[1] = studies with registered drugs

| Structure (SMILES) | Skin rash after administration (after multiple dosing at higher dose levels) | Analgesic effects on experimental pain tests [1] | Skin rash after administration (nonselective Nav inhibitors) |
| --- | --- | --- | --- |
| Nc1[nH]ncc1-c1cc(Cl)ccc1Oc1cc(F)c(S(=O)(=O)Nc2cscn2)cc1Cl [PF‐05089771] | mild skin rash |  |  |
| COC[C@@H](NC(C)=O)C(=O)NCc1ccccc1 [lacosamide] |  | limited and variable analgesic effects |  |
| CCN(CC)CC(=O)Nc1c(C)cccc1C [lidocaine] |  | limited and variable analgesic effects |  |
| Cc1cccc(C)c1OCC(C)N (stereo not drawn) [mexiletine] |  | limited and variable analgesic effects | mild skin rash |
| O=C1NC(=O)C(c2ccccc2)(c2ccccc2)N1 [phenytoin] |  |  | mild skin rash |
